Results reported in patent US10611740B2, “Aryl dihydro-2H-benzo[b][1,4]oxazine sulfonamide and related compounds for use as agonists of RORγ and the treatment of disease” (Lycera Corporation, priority 2015, dated 2020).

Legend:
RORγ-LBD = molecular target: T1, RORγ-LBD (Homo sapiens, UniProt P51449); assay: RORγ-Ligand Binding Domain (LBD) TR-FRET Assay; assay type: biochemical;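 as to TR-FRET Assay Max Response: 665/615 nm ratio relative to signal without ursolic acid or compound set at 100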
T1 construct: made in house; host or cells: SF9 cells (baculovirus)
T1 sequence (P51449 269-508 limits assumed): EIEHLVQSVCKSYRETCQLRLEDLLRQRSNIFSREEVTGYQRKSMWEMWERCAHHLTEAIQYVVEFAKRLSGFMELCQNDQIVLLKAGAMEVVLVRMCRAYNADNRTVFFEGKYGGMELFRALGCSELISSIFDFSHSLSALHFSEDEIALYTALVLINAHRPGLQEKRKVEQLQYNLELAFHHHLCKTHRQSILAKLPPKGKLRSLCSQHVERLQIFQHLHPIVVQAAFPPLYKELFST
How it was run: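 TR-FRET read-out using a biotin-tagged SRC1 coactivator LXXLL peptide (200 nM final), with the antagonist ursolic acid present at 2 μM final. Receptor is His-tagged LBD expressed in SF9 cells, ~3 nM final in pH 7.0 Tris/KCl/EDTA/DTT/BSA buffer; compounds in 1% DMSO final.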

Gal4-RORγ-LBD = molecular target: T2, Gal4-RORγ-LBD (Homo sapiens, UniProt P51449); assay: Gal4-RORγ Luciferase Reporter Assay in HEK-293T Cells; assay type: cell-based; details: HEK-293 cells
T2 construct: expressed in transfected cells; host or cells: HEK-293 cells (pcDNA3.1neo plasmid)
T2 sequence (P51449 269-508 limits assumed): T1 sequence (P51449 269-508 limits assumed)
How it was run: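 Luminescence read-out (One-Glo, 10 min RT) after overnight compound exposure at 37 °C in HEK-293 cells carrying Gal4-RORγ-LBD plus a Gal4-luciferase reporter, in the presence of 2 μM ursolic acid. Max Response is the upper plateau from a 4-parameter logistic fit, normalized to untreated signal = 100.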

[1] = luciferase reporter, with 2 μM ursolic acid

| Structure (SMILES) | EC50 (RORγ-LBD) | TR-FRET Assay Max Response (RORγ-LBD) | EC50 (Gal4-RORγ-LBD; [1]) | Gal4-RORγ Assay Max Response (Gal4-RORγ-LBD; [1]) | EC50 (Gal4-RORγ-LBD; 2 μM ursolic acid) | Gal4-RORγ Assay Max Response (Gal4-RORγ-LBD; 2 μM ursolic acid) |
| --- | --- | --- | --- | --- | --- | --- |
| CC(C)(C[C@H]1CN(S(=O)(=O)c2cccc(C(F)(F)F)c2)c2cc(-c3cc(Cl)cc(OC(F)F)c3)ccc2O1)C(=O)O [Compound 32R, (S)-3-(6-(3-chloro-5-(difluoro-methoxy)phenyl)-4-((3-(trifluoro-methyl)phenyl)sulfonyl)-3,4-dihydro-2H-benzo[b][1,4]oxazin-2-yl)-2,2-dimethylpropanoic acid] | < 500 nM | *** (The symbol “***” indicates a value in the range of greater than 150 to 200) | < 500 nM | ** (The symbol “**” indicates a value in the range of greater than 90 to 150) | – | – |
| COc1cc(S(=O)(=O)N2C[C@H](CCC(C)(C)C(=O)O)Oc3ccc(-c4cc(F)cc(OC)c4F)cc32)ccc1F [Compound 32S, (S)-4-(6-(2,5-difluoro-3-methoxyphenyl)-4-((4-fluoro-3-methoxyphenyl)sulfonyl)-3,4-dihydro-2H-benzo[b][1,4]oxazin-2-yl)-2,2-dimethylbutanoic acid] | < 500 nM | *** (The symbol “***” indicates a value in the range of greater than 150 to 200) | – | – | < 500 nM | ** (The symbol “**” indicates a value in the range of greater than 90 to 150) |
| CC(C)(CC[C@H]1CN(S(=O)(=O)c2cccc(OC(F)F)c2)c2cc(-c3cc(F)ccc3F)ccc2O1)C(=O)O [Compound 32T, (S)-4-(4-((3-(difluoro-methoxy)phenyl)sulfonyl)-6-(2,5-difluorophenyl)-3,4-dihydro-2H-benzo[b][1,4]oxazin-2-yl)-2,2-dimethylbutanoic acid] | < 500 nM | *** (The symbol “***” indicates a value in the range of greater than 150 to 200) | – | – | < 500 nM | ** (The symbol “**” indicates a value in the range of greater than 90 to 150) |
| COc1cccc(-c2ccc3c(c2)N(S(=O)(=O)c2cccc(C(F)(F)F)c2)C[C@H](CC(C)(C)C(=O)O)O3)c1OC [Compound 32V, (S)-3-(6-(2,3-dimethoxyphenyl)-4-((3-(trifluoromethyl)phenyl)-sulfonyl)-3,4-dihydro-2H-benzo[b][1,4]oxazin-2-yl)-2,2-dimethylpropanoic acid] | < 500 nM | *** (The symbol “***” indicates a value in the range of greater than 150 to 200) | – | – | < 500 nM | ** (The symbol “**” indicates a value in the range of greater than 90 to 150) |
| CC(C)(C[C@H]1CN(S(=O)(=O)c2cccc(C(F)(F)F)c2)c2cc(-c3cccc(Cl)c3)ccc2O1)C(=O)O [Compound 32W, (S)-3-(6-(3-chlorophenyl)-4-((3-(trifluoromethyl)phenyl)sulfonyl)-3,4-dihydro-2H-benzo[b][1,4]-oxazin-2-yl)-2,2-dimethyl-propanoic acid] | < 500 nM | *** (The symbol “***” indicates a value in the range of greater than 150 to 200) | – | – | < 500 nM | ** (The symbol “**” indicates a value in the range of greater than 90 to 150) |
| CC(C)(C[C@H]1CN(S(=O)(=O)c2cccc(C(F)(F)F)c2)c2cc(-c3cc(F)cc(F)c3F)ccc2O1)C(=O)O [Compound 32X, (S)-2,2-dimethyl-3-(4-((3-(trifluoromethyl)phenyl)sulfonyl)-6-(2,3,5-trifluorophenyl)-3,4-dihydro-2H-benzo[b][1,4]oxazin-2-yl)propanoic acid] | < 500 nM | *** (The symbol “***” indicates a value in the range of greater than 150 to 200) | – | – | < 500 nM | ** (The symbol “**” indicates a value in the range of greater than 90 to 150) |
| CC(C)(C[C@H]1CN(S(=O)(=O)c2cccc(C(F)(F)F)c2)c2cc(-c3cc(F)cc(Cl)c3)ccc2O1)C(=O)O [Compound 32Y, (S)-3-(6-(3-chloro-5-fluoro-phenyl)-4-((3-(trifluoromethyl)-phenyl)sulfonyl)-3,4-dihydro-2H-benzo[b][1,4]oxazin-2-yl)-2,2-dimethylpropanoic acid] | < 500 nM | *** (The symbol “***” indicates a value in the range of greater than 150 to 200) | – | – | < 500 nM | ** (The symbol “**” indicates a value in the range of greater than 90 to 150) |
| CC(C)(C[C@H]1CN(S(=O)(=O)c2cccc(C(F)(F)F)c2)c2cc(-c3ccccc3OC(F)(F)F)ccc2O1)C(=O)O [Compound 32Z, (S)-2,2-dimethyl-3-(6-(2-(trifluoromethoxy)phenyl)-4-((3-(trifluoromethyl)phenyl)sulfonyl)-3,4-dihydro-2H-benzo[b][1,4]-oxazin-2-yl)propanoic acid] | < 500 nM | *** (The symbol “***” indicates a value in the range of greater than 150 to 200) | – | – | < 500 nM | ** (The symbol “**” indicates a value in the range of greater than 90 to 150) |
| O=S(=O)(c1cccc(C(F)(F)F)c1)N1C[C@H](CCCO)Oc2ccc(-c3ccc(F)cc3F)cc21 [Compound 34A, (S)-3-(6-(2,4-difluorophenyl)-4-((3-(trifluoromethyl)phenyl)-sulfonyl)-3,4-dihydro-2H-benzo[b][1,4]oxazin-2-yl)propan-1-ol] | < 500 nM | **** (The symbol “****” indicates a value greater than 200) | < 500 nM | * (The symbol “*” indicates a value in the range of 25 to 90) | – | – |
| O=S(=O)(c1cccc(C(F)(F)F)c1)N1C[C@H](CCCO)Oc2ccc(-c3ccc(F)c(F)c3)cc21 [Compound 34B, (S)-3-(6-(3,4-difluorophenyl)-4-((3-(trifluoromethyl)phenyl)-sulfonyl)-3,4-dihydro-2H-benzo[b][1,4]oxazin-2-yl)propan-1-ol] | < 500 nM | **** (The symbol “****” indicates a value greater than 200) | < 500 nM | * (The symbol “*” indicates a value in the range of 25 to 90) | – | – |
| O=S(=O)(c1cccc(C(F)(F)F)c1)N1C[C@H](CCCO)Oc2ccc(-c3cc(F)cc(F)c3)cc21 [Compound 34C, (S)-3-(6-(3,5-difluorophenyl)-4-((3-(trifluoromethyl)phenyl)-sulfonyl)-3,4-dihydro-2H-benzo[b][1,4]oxazin-2-yl)propan-1-ol] | < 500 nM | **** (The symbol “****” indicates a value greater than 200) | < 500 nM | ** (The symbol “**” indicates a value in the range of greater than 90 to 150) | – | – |
| O=S(=O)(c1cccc(C(F)(F)F)c1)N1C[C@H](CCCO)Oc2ccc(-c3cccc(Cl)c3)cc21 [Compound 34D, (S)-3-(6-(3-chlorophenyl)-4-((3-(trifluoromethyl)phenyl)sulfonyl)-3,4-dihydro-2H-benzo[b][1,4]-oxazin-2-yl)propan-1-ol] | < 500 nM | **** (The symbol “****” indicates a value greater than 200) | < 500 nM | ** (The symbol “**” indicates a value in the range of greater than 90 to 150) | – | – |
| CN(C)c1cccc(-c2ccc3c(c2)N(S(=O)(=O)c2cccc(C(F)(F)F)c2)C[C@H](CCCOc2noc(=O)[nH]2)O3)n1 [Compound 35, (S)-3-(3-(6-(6-(dimethylamino)pyridin-2-yl)-4-((3-(trifluoromethyl)phenyl)sulfonyl)-3,4-dihydro-2H-benzo[b][1,4]oxazin-2-yl)propoxy)-1,2,4-oxadiazol-5(4H)-one] | < 500 nM | **** (The symbol “****” indicates a value greater than 200) | < 500 nM | ** (The symbol “**” indicates a value in the range of greater than 90 to 150) | – | – |
| O=c1[nH]c(OCCC[C@H]2CN(S(=O)(=O)c3cccc(C(F)(F)F)c3)c3cc(-c4cc(F)cc(F)c4)ccc3O2)no1 [Compound 36A, (S)-3-(3-(6-(3,5-difluoro-phenyl)-4-((3-(trifluoro-methyl)phenyl)sulfonyl)-3,4-dihydro-2H-benzo[b][1,4]-oxazin-2-yl)propoxy)-1,2,4-oxadiazol-5(4H)-one] | < 500 nM | **** (The symbol “****” indicates a value greater than 200) | < 500 nM | **** (The symbol “****” indicates a value greater than 200) | – | – |
| COc1cccc(-c2ccc3c(c2)N(S(=O)(=O)c2cccc(C(F)(F)F)c2)C[C@H](CCCOc2noc(=O)[nH]2)O3)c1 [Compound 36B, (S)-3-(3-(6-(3-methoxyphenyl)-4-((3-(trifluoromethyl)phenyl)-sulfonyl)-3,4-dihydro-2H-benzo[b][1,4]oxazin-2-yl)propoxy)-1,2,4-oxadiazol-5(4H)-one] | < 500 nM | **** (The symbol “****” indicates a value greater than 200) | < 500 nM | ** (The symbol “**” indicates a value in the range of greater than 90 to 150) | – | – |
